# Measured values: PubChem BioAssay AID1259407 (Chemical Carcinogenesis Research Information System (CCRIS), 2018)
# The source made the active and inactive calls. No rule for the calls is given here.
# System: CCRIS mutagenicity, Ames/micronucleus/aberration tests
# Assay: CCRIS mutagenicity studies
# Description: The CCRIS database contains chemical records with carcinogenicity, mutagenicity, tumor promotion, and tumor inhibition test results. It was developed by the National Cancer Institute (NCI). Data are derived from studies cited in primary journals, current awareness tools, NCI reports, and other sources. Test results have been reviewed by experts in carcinogenesis and mutagenesis.
# CCRIS provides historical information from the years 1985 - 2011. It is no longer updated.
# This is an archive assay for CCRIS mutagenicity studies.
# [1] = Test System: AMES SALMONELLA TYPHIMURIUM, Strain/Indicator: TA98, Metabolic Activation: NONE, Method: STANDARD PLATE
# [2] = Test System: AMES SALMONELLA TYPHIMURIUM, Strain/Indicator: TA98, Metabolic Activation: RAT, LIVER, S-9, AROCLOR 1254, Method: STANDARD PLATE
# [3] = Test System: AMES SALMONELLA TYPHIMURIUM, Strain/Indicator: TA100, Metabolic Activation: NONE, Method: STANDARD PLATE
# [4] = Test System: AMES SALMONELLA TYPHIMURIUM, Strain/Indicator: TA100, Metabolic Activation: RAT, LIVER, S-9, AROCLOR 1254, Method: STANDARD PLATE
# [5] = Test System: AMES SALMONELLA TYPHIMURIUM, Strain/Indicator: TA1535, Metabolic Activation: NONE, Method: STANDARD PLATE
# [6] = Test System: UDS RAT HEPATOCYTES, Strain/Indicator: THY INCORP, Metabolic Activation: NONE, Method: AUTORADIOGRAPHY
structure (smiles),measurement,setting,value
CCC1(c2ccccc2)C(=O)N=C(O)NC1=O (stereo not given),mutagenic call,"Test System: AMES SALMONELLA TYPHIMURIUM, Strain/Indicator: TA97, Metabolic Activation: NONE, Method: STANDARD PLATE",inactive; negative
same,mutagenic call,"Test System: AMES SALMONELLA TYPHIMURIUM, Strain/Indicator: TA97, Metabolic Activation: RAT, LIVER, S-9, AROCLOR 1254, Method: STANDARD PLATE",inactive; negative
same,mutagenic call,[1],inactive; negative
same,mutagenic call,[2],inactive; negative
same,mutagenic call,[3],inactive; negative
same,mutagenic call,[4],inactive; negative
same,mutagenic call,"Test System: AMES SALMONELLA TYPHIMURIUM, Strain/Indicator: TA102, Metabolic Activation: RAT, LIVER, S-9, AROCLOR 1254, Method: STANDARD PLATE",inactive; negative
same,mutagenic call,[5],active; positive
C[C@H]1C(=O)O[C@@H]2CCN3CC=C(COC(=O)[C@](C)(O)[C@]1(C)O)[C@H]23,mutagenic call,"Test System: AMES SALMONELLA TYPHIMURIUM, Strain/Indicator: TA100, Metabolic Activation: HAMSTER, LIVER, S-9, PCB, Method: PREINCUBATION",inactive; negative
same,mutagenic call,"Test System: AMES SALMONELLA TYPHIMURIUM, Strain/Indicator: TA100, Metabolic Activation: RAT, LIVER, S-9, PCB, Method: PREINCUBATION",inactive; negative
same,mutagenic call,"Test System: AMES SALMONELLA TYPHIMURIUM, Strain/Indicator: TA100, Metabolic Activation: RAT, LIVER, S-9, SODIUM PHENOBARBITAL AND BETA-NAPHTHOFLAVONE, Method: PREINCUBATION",inactive; negative
same,mutagenic call,"Test System: MOUSE LYMPHOMA, Strain/Indicator: L5178Y (TK+/TK-), Metabolic Activation: NONE, Method: MICROWELL",active; positive
same,mutagenic call,"Test System: MOUSE LYMPHOMA, Strain/Indicator: L5178Y (TK+/TK-), Metabolic Activation: S-9, Method: MICROWELL",active; positive
same,mutagenic call,"Test System: UDS HAMSTER HEPATOCYTES, Strain/Indicator: THY INCORP, Metabolic Activation: NONE, Method: AUTORADIOGRAPHY",active; positive
same,mutagenic call,"Test System: UDS MOUSE HEPATOCYTES, Strain/Indicator: THY INCORP, Metabolic Activation: NONE, Method: AUTORADIOGRAPHY",active; positive
same,mutagenic call,[6],active; positive
Cc1ccc2c(C)c3ccc4ccccc4c3nc2c1,mutagenic call,"Test System: AMES SALMONELLA TYPHIMURIUM, Strain/Indicator: TA97A, Metabolic Activation: NONE, Method: PREINCUBATION",active; positive
same,mutagenic call,"Test System: AMES SALMONELLA TYPHIMURIUM, Strain/Indicator: TA98, Metabolic Activation: NONE, Method: PREINCUBATION",active; positive
same,mutagenic call,"Test System: AMES SALMONELLA TYPHIMURIUM, Strain/Indicator: TA100, Metabolic Activation: NONE, Method: PREINCUBATION",active; positive
same,mutagenic call,[4],active; positive
same,mutagenic call,"Test System: AMES SALMONELLA TYPHIMURIUM, Strain/Indicator: TA102, Metabolic Activation: NONE, Method: PREINCUBATION",active; positive
S=C=NCCc1ccccc1,mutagenic call,[1],inactive; negative
same,mutagenic call,"Test System: AMES SALMONELLA TYPHIMURIUM, Strain/Indicator: TA98, Metabolic Activation: RAT LIVER S-9, AROCLOR 1254, Method: STANDARD PLATE",active; positive
same,mutagenic call,[3],inactive; negative
same,mutagenic call,"Test System: AMES SALMONELLA TYPHIMURIUM, Strain/Indicator: TA100, Metabolic Activation: RAT LIVER S-9, AROCLOR 1254, Method: STANDARD PLATE",inactive; negative
CCCCCCCCC=O,mutagenic call,"End Point: IN VITRO CHROMOSOMAL ABERRATIONS, Test System: RAT HEPATOCYTES, Metabolic Activation: NONE",inactive; negative
same,mutagenic call,"End Point: IN VITRO MICRONUCLEUS, Test System: RAT HEPATOCYTES, Metabolic Activation: NONE",inactive; negative
same,mutagenic call,"Test System: AMES SALMONELLA TYPHIMURIUM, Strain/Indicator: TA98, Metabolic Activation: HAMSTER, LIVER, S-9, AROCLOR 1254, Method: STANDARD PLATE",inactive; negative
same,mutagenic call,[1],inactive; negative
same,mutagenic call,[2],inactive; negative
same,mutagenic call,"Test System: AMES SALMONELLA TYPHIMURIUM, Strain/Indicator: TA98, Metabolic Activation: RAT, LIVER, S-9, AROCLOR, Method: STANDARD PLATE",inactive; negative
same,mutagenic call,"Test System: AMES SALMONELLA TYPHIMURIUM, Strain/Indicator: TA100, Metabolic Activation: HAMSTER, LIVER, S-9, AROCLOR 1254, Method: STANDARD PLATE",inactive; negative
same,mutagenic call,[3],inactive; negative
same,mutagenic call,[4],inactive; negative
same,mutagenic call,"Test System: AMES SALMONELLA TYPHIMURIUM, Strain/Indicator: TA100, Metabolic Activation: RAT, LIVER, S-9, AROCLOR, Method: STANDARD PLATE",inactive; negative
same,mutagenic call,"Test System: AMES SALMONELLA TYPHIMURIUM, Strain/Indicator: TA1535, Metabolic Activation: HAMSTER, LIVER, S-9, AROCLOR 1254, Method: STANDARD PLATE",inactive; negative
same,mutagenic call,[5],inactive; negative
same,mutagenic call,"Test System: AMES SALMONELLA TYPHIMURIUM, Strain/Indicator: TA1535, Metabolic Activation: RAT, LIVER, S-9, AROCLOR 1254, Method: STANDARD PLATE",inactive; negative
same,mutagenic call,"Test System: AMES SALMONELLA TYPHIMURIUM, Strain/Indicator: TA1537, Metabolic Activation: HAMSTER, LIVER, S-9, AROCLOR 1254, Method: STANDARD PLATE",inactive; negative
same,mutagenic call,"Test System: AMES SALMONELLA TYPHIMURIUM, Strain/Indicator: TA1537, Metabolic Activation: NONE, Method: STANDARD PLATE",inactive; negative
same,mutagenic call,"Test System: AMES SALMONELLA TYPHIMURIUM, Strain/Indicator: TA1537, Metabolic Activation: RAT, LIVER, S-9, AROCLOR 1254, Method: STANDARD PLATE",inactive; negative
same,mutagenic call,"Test System: AMES SALMONELLA TYPHIMURIUM, Strain/Indicator: TA1538, Metabolic Activation: HAMSTER, LIVER, S-9, AROCLOR 1254, Method: STANDARD PLATE",inactive; negative
same,mutagenic call,"Test System: AMES SALMONELLA TYPHIMURIUM, Strain/Indicator: TA1538, Metabolic Activation: NONE, Method: STANDARD PLATE",inactive; negative
same,mutagenic call,"Test System: AMES SALMONELLA TYPHIMURIUM, Strain/Indicator: TA1538, Metabolic Activation: RAT, LIVER, S-9, AROCLOR 1254, Method: STANDARD PLATE",inactive; negative
same,mutagenic call,"Test System: AMES SALMONELLA TYPHIMURIUM, Strain/Indicator: UTH8413, Metabolic Activation: NONE, Method: STANDARD PLATE",inactive; negative
same,mutagenic call,"Test System: AMES SALMONELLA TYPHIMURIUM, Strain/Indicator: UTH8413, Metabolic Activation: RAT, LIVER, S-9, AROCLOR, Method: STANDARD PLATE",inactive; negative
same,mutagenic call,"Test System: AMES SALMONELLA TYPHIMURIUM, Strain/Indicator: UTH8414, Metabolic Activation: NONE, Method: STANDARD PLATE",inactive; negative
same,mutagenic call,"Test System: AMES SALMONELLA TYPHIMURIUM, Strain/Indicator: UTH8414, Metabolic Activation: RAT, LIVER, S-9, AROCLOR, Method: STANDARD PLATE",inactive; negative
same,mutagenic call,"Test System: CHINESE HAMSTER V-79, Strain/Indicator: V-79/6-THIOGUANINE (HGPRT), Metabolic Activation: NONE, Method: REPLATING",active; positive
same,mutagenic call,"Test System: CHINESE HAMSTER V-79, Strain/Indicator: V-79/OUABAIN (NA/K), Metabolic Activation: NONE, Method: REPLATING",active; positive
same,mutagenic call,"Test System: MOUSE LYMPHOMA, Strain/Indicator: L5178Y (TK+/TK-), Metabolic Activation: NONE, Method: SUSPENSION/PLATE",inactive; negative. reevaluation of results: equivocal
same,mutagenic call,"Test System: MOUSE LYMPHOMA, Strain/Indicator: L5178Y (TK+/TK-), Metabolic Activation: RAT, LIVER, S-9, AROCLOR 1254, Method: SUSPENSION/PLATE",inactive; negative. reevaluation of results: equivocal
same,mutagenic call,"Test System: UDS HUMAN HEPATOCYTES, Strain/Indicator: THY INCORP, Metabolic Activation: NONE, Method: AUTORADIOGRAPHY",inactive; negative
same,mutagenic call,[6],inactive; negative
CC(O)/C=C/C=O (stereo not given),mutagenic call,"Test System: AMES SALMONELLA TYPHIMURIUM, Strain/Indicator: TA104, Metabolic Activation: NONE, Method: PREINCUBATION",active; positive
